Measured values taken from ChEMBL document CHEMBL4811252, “Identification of novel 1,3-diaryl-1,2,4-triazole-capped histone deacetylase 6 inhibitors with potential anti-gastric cancer activity” (Eur J Med Chem, 2021).

Key:
[1] = target: T1, Protein deacetylase HDAC6 (Homo sapiens, UniProt Q9UBN7); assay: Inhibition of recombinant full length human HDAC6 expressed in baculovirus infected Sf9 cells using Z-(Ac)-Lys-AMC as substrate incubated for 40 mins by fluorescence based assay
T1 sequence (Q9UBN7 whole entry): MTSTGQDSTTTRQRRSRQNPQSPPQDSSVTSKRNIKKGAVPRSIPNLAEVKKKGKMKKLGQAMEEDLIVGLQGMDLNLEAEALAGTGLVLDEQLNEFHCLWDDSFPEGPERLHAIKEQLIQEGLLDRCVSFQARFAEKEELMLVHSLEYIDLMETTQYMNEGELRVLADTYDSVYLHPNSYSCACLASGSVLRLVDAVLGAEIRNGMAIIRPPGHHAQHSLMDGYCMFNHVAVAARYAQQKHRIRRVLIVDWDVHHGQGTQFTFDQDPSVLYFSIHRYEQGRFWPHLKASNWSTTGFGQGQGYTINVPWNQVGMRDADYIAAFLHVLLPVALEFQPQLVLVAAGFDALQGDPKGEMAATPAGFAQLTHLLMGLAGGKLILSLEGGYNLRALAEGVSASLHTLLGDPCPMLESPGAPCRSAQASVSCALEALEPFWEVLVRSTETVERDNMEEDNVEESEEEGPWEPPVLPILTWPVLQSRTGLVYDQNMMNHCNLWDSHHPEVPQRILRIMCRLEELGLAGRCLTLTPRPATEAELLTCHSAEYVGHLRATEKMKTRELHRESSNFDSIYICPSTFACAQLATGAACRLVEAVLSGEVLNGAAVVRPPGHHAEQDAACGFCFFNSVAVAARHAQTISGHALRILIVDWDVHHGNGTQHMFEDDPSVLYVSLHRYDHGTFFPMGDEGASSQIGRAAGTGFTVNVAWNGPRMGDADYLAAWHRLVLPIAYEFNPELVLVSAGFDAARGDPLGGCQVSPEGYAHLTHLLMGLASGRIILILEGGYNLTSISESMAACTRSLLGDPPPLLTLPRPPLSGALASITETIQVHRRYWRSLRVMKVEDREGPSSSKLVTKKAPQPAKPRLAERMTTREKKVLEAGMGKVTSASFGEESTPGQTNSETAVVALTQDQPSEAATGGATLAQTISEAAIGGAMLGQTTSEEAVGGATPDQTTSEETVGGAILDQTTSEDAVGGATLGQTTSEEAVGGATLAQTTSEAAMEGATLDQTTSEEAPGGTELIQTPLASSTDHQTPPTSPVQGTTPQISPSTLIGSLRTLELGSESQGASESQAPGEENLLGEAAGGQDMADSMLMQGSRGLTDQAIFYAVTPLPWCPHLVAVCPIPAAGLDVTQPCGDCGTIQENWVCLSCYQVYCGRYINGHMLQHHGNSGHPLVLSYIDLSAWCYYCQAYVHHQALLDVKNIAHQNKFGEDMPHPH

Histone deacetylase 1 [2] = target: T2, Histone deacetylase 1 (Homo sapiens, UniProt Q13547); assay: Inhibition of recombinant human HDAC1 using Z-(Ac)-Lys-AMC as substrate incubated for 40 mins by fluorescence based assay
T2 sequence (Q13547 whole entry): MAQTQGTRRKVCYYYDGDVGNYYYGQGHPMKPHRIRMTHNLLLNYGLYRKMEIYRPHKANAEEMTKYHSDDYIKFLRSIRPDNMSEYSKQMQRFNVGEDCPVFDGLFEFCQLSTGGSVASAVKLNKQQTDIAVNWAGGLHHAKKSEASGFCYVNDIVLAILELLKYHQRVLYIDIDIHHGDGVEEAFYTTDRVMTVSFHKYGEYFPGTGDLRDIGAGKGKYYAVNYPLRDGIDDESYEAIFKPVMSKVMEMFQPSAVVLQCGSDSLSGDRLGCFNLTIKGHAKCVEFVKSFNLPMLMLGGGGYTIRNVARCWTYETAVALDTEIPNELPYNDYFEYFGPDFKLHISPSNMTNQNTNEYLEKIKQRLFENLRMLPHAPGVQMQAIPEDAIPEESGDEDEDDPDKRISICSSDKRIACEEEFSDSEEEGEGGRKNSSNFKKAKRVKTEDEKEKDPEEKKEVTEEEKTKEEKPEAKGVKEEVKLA

MGC-803 = assay: Antiproliferative activity against human MGC803 cells incubated for 72 hrs by MTT assay; type: functional, cell-based; details: MGC-803, 72 h
[3] = target: T3, Protein deacetylase HDAC6 (Homo sapiens) (UniProt Q9UBN7); details: Sf9, dose 100.0 nM, time 40.0 min
T3 sequence (whole entry): T1 sequence (Q9UBN7 whole entry)

Histone deacetylase 1 [4] = target: T2, Histone deacetylase 1; details: dose 100.0 nM, time 40.0 min

| IC50 [1] [µM] | IC50 (Histone deacetylase 1 [2]) [µM] | IC50 (MGC-803) [µM] | inhibition [3] [%] | inhibition (Histone deacetylase 1 [4]) [%] | Compound |
| --- | --- | --- | --- | --- | --- |
| 0.163 | 2.86 | > 20 | 77.6 | 33.4 | COc1ccc(-c2nc(CNc3ccc(C(=O)NO)cc3)n(-c3ccccc3)n2)cc1 |
|  |  |  | 60.7 | 22.3 | Cc1ccc(-c2nc(CNc3ccc(C(=O)NO)cc3)n(-c3ccccc3)n2)o1 |
|  |  |  | 57.7 | 12.9 | O=C(NO)c1ccc(NCc2nc(-c3cccnc3)nn2-c2ccccc2)cc1 |
|  |  |  | 54.6 | 13.2 | CCc1ccc(-c2nc(CNc3ccc(C(=O)NO)cc3)n(-c3ccccc3)n2)cc1 |
| 1.73 | 3.2 | 9.3 | 65.9 | 18.2 | O=C(NO)c1ccc(NCc2nc(-c3ccccc3)nn2-c2ccc(Br)cc2)cc1 |
|  |  |  | 59.9 | 16.7 | O=C(NO)c1ccc(NCc2nc(-c3ccco3)nn2-c2ccccc2)cc1 |
|  |  |  | 54.7 | 13.2 | O=C(NO)c1ccc(NCc2nc(-c3ccc(Br)cc3)nn2-c2ccccc2)cc1 |
| 0.185 | 3.83 | > 20 | 75 | 15.6 | O=C(NO)c1ccc(NCc2nc(-c3ccccc3Cl)nn2-c2ccccc2)cc1 |
| 0.669 | 3.12 | 9.63 | 64.6 | 17 | O=C(NO)c1ccc(NCc2nc(-c3ccccc3)nn2-c2ccccc2Cl)cc1 |
| 0.112 | 2.49 | 17.7 | 72.6 | 19 | O=C(NO)c1ccc(NCc2nc(-c3ccccc3)nn2-c2ccccc2)cc1 |
|  |  |  | -3.6 | -0.55 | CNC(=O)c1ccc(NCc2nc(-c3ccccc3)nn2-c2ccccc2)cc1 |
| 0.388 | 3.85 | 13.2 | 66 | 18.4 | Cc1cccc(-n2nc(-c3ccccc3)nc2CNc2ccc(C(=O)NO)cc2)c1 |
| 0.281 | 5.52 | 8.71 | 64.1 | 13 | Cc1cccc(-c2nc(CNc3ccc(C(=O)NO)cc3)n(-c3ccccc3)n2)c1 |
| 0.224 | 3.1 | > 20 | 62.2 | 20.3 | Cc1ccc(-c2nc(CNc3ccc(C(=O)NO)cc3)n(-c3ccccc3)n2)cc1 |
|  |  |  | 30.8 | 7.5 | O=C(NO)c1ccc(NCc2nc(-c3ccncc3)nn2-c2ccccc2)cc1 |
|  |  |  | 58.6 | 16 | O=C(NO)c1ccc(NCc2nc(-c3ccccn3)nn2-c2ccccc2)cc1 |
| 0.31 | 1.72 |  | 60.7 | 24.6 | Cc1ccc(-n2nc(-c3ccccc3)nc2CNc2ccc(C(=O)NO)cc2)cc1 |
| 0.274 | 1.82 | 10.5 | 67.6 | 16.3 | O=C(NO)c1ccc(NCc2nc(-c3ccccc3)nn2-c2ccc(F)cc2)cc1 |
| 0.114 | 3.4 | 8.96 | 70.9 | 20.8 | O=C(NO)c1ccc(NCc2nc(-c3ccc(F)cc3)nn2-c2ccccc2)cc1 |
|  |  |  | 10 | 4.1 | NNC(=O)c1ccc(NCc2nc(-c3ccccc3)nn2-c2ccccc2)cc1 |
|  |  |  | 38.3 | 10.8 | CCc1ccc(-n2nc(-c3ccccc3)nc2CNc2ccc(C(=O)NO)cc2)cc1 |
|  |  |  | 55.8 | 13.8 | O=C(NO)c1ccc(NCc2nc(-c3ccc(Br)o3)nn2-c2ccccc2)cc1 |
|  |  |  | 53.4 | 15.2 | O=C(NO)c1ccc(NCc2nc(-c3ccsc3)nn2-c2ccccc2)cc1 |
| 0.324 | 1.46 | 6.11 | 65.5 | 26 | O=C(NO)c1ccc(NCc2nc(-c3cc4ccccc4s3)nn2-c2ccccc2)cc1 |

| IC50 [1] [µM] | IC50 (Histone deacetylase 1 [2]) [µM] | IC50 (MGC-803) [µM] | inhibition [3] [%] | inhibition (Histone deacetylase 1 [4]) [%] | Compound |
| --- | --- | --- | --- | --- | --- |
|  |  |  | 41.6 | 4.9 | O=C(NO)c1ccc(NCc2nc(-c3ccc(C(F)(F)F)cc3)nn2-c2ccccc2)cc1 |
| 0.181 | 2.42 | 5.97 | 67.2 | 19.5 | O=C(NO)c1ccc(NCc2nc(-c3ccc(Cl)cc3)nn2-c2ccccc2)cc1 |
| 0.127 | 0.883 | 7.05 | 63.4 | 26.2 | COc1ccc(-n2nc(-c3ccccc3)nc2CNc2ccc(C(=O)NO)cc2)cc1 |
|  |  |  | 38.9 | 12.8 | O=C(NO)c1ccc(NCc2nc(-c3ccccc3)nn2-c2ccc(C(F)(F)F)cc2)cc1 |
| 0.102 | 4.3 | > 20 | 70.3 | 25.9 | COc1ccc(-n2nc(-c3ccc(O)cc3)nc2CNc2ccc(C(=O)NO)cc2)cc1 |
|  |  |  | 49.8 | 12.4 | Cc1cc(C)cc(-n2nc(-c3ccccc3)nc2CNc2ccc(C(=O)NO)cc2)c1 |
| 0.0307 | 3.2 | 8.89 | 72.1 | 26.3 | Cc1ccsc1-c1nc(CNc2ccc(C(=O)NO)cc2)n(-c2ccccc2)n1 |
|  |  |  | 5 | 32 | Nc1ccccc1NC(=O)c1ccc(NCc2nc(-c3ccccc3)nn2-c2ccccc2)cc1 |
| 0.678 | 4.4 | 13.7 | 62.3 | 14.7 | O=C(NO)c1ccc(NCc2nc(-c3ccccc3)nn2-c2cccc(Cl)c2)cc1 |
|  |  |  | 34.5 | 7.6 | O=C(NO)c1ccc(NCc2nc(-c3ccc(Cl)c(Cl)c3)nn2-c2ccccc2)cc1 |
|  |  |  | 39.8 | 8.3 | O=C(NO)c1ccc(NCc2nc(-c3ccc(Cl)s3)nn2-c2ccccc2)cc1 |
|  |  |  | 55.4 | 18 | O=C(NO)c1ccc(NCc2nc(-c3ccccc3)nn2-c2ccc(Cl)cc2)cc1 |
|  |  |  | 27.6 | 4.3 | CC(C)c1ccc(-c2nc(CNc3ccc(C(=O)NO)cc3)n(-c3ccccc3)n2)cc1 |
|  |  |  | -0.4 | 2.1 | O=C(O)c1ccc(NCc2nc(-c3ccccc3)nn2-c2ccccc2)cc1 |
| 0.115 | 1.87 | 5.76 | 61.2 | 17 | O=C(NO)c1ccc(NCc2nc(-c3cccc(Cl)c3)nn2-c2ccccc2)cc1 |
|  |  |  | 53.2 | 16.5 | Cc1ccccc1-c1nc(CNc2ccc(C(=O)NO)cc2)n(-c2ccccc2)n1 |
|  |  |  | 57.1 | 17 | Cc1ccccc1-n1nc(-c2ccccc2)nc1CNc1ccc(C(=O)NO)cc1 |
| 0.0549 | 2.08 | 6.32 | 71.1 | 23.7 | O=C(NO)c1ccc(NCc2nc(-c3sccc3Br)nn2-c2ccccc2)cc1 |
|  |  |  | 40.2 | 11.2 | O=C(NO)c1ccc(NCc2nc(-c3cccc4cnccc34)nn2-c2ccccc2)cc1 |
| 0.0335 | 1.5 | > 20 | 79.6 | 38.4 | O=C(NO)c1ccc(NCc2nc(-c3cccs3)nn2-c2ccc(O)cc2)cc1 |
|  |  |  | 52.6 | 17.3 | CC(C)c1ccc(-n2nc(-c3ccccc3)nc2CNc2ccc(C(=O)NO)cc2)cc1 |
|  |  |  | 53 | 11 | Cc1ccc(-n2nc(-c3ccccc3)nc2CNc2ccc(C(=O)NO)cc2)cc1C |
|  |  |  | -4.4 | -2.6 | NC(=O)c1ccc(NCc2nc(-c3ccccc3)nn2-c2ccccc2)cc1 |
